This is an account of results in ChEMBL document CHEMBL6083197, “Design, synthesis, inhibitory activity, and molecular simulations study for d-glucose-conjugated thioureas containing pyrimidine ring as multitarget inhibitors against α-amylase, α-glucosidase, DDP-4, and PTP1B in Type 2 diabetes mellitus” (RSC Med Chem, 2024).

Assay [1] can be described thus: Inhibition of alpha-amylase (unknown origin) using starch as substrate preincubated for 10 mins followed by substrate addition and measured after 10 mins by 3, 5-dinitrosalicylic acid reagent based microplate reader assay.
The nature of assay [2]: Inhibition of alpha-glucosidase (unknown origin) using p-nitrophenyl-alpha-D-glucoside as substrate preincubated for 5 mins followed by substrate addition and measured after 20 mins by microplate reader assay.
A short description of assay [3]: Inhibition of alpha-amylase (unknown origin) using starch as substrate incubated for 10 mins by DNS reagent based spectrometric assay. Also noted: species or system Homo sapiens.
Assay [4] can be described thus: Inhibition of alpha-glucosidase (unknown origin) using p-nitrophenyl-glucopyranoside as substrate incubated for 10 mins. More on the design: species or system Homo sapiens.
Assay [5] addresses T1, Dipeptidyl peptidase 4 (Homo sapiens, UniProt P27487). The assay is described as follows: Inhibition of recombinant human DPP-4 using Gly-Pro-AMC as substrate by fluorometric assay.
Assay [6] concerns the target T1, Dipeptidyl peptidase 4. In words: Inhibition of DPP-4 (unknown origin).
The nature of assay [7]: Inhibition of alpha-amylase (unknown origin) using starch as substrate preincubated for 10 mins followed by substrate addition and measured after 10 mins by DNSA reagent based spectrophotometric assay. More on the design: species or system Homo sapiens.

pIC50: −log10 of the molar value. ≈ marks a conversion by molar mass, not a printed value.

T1 sequence (P27487 whole entry): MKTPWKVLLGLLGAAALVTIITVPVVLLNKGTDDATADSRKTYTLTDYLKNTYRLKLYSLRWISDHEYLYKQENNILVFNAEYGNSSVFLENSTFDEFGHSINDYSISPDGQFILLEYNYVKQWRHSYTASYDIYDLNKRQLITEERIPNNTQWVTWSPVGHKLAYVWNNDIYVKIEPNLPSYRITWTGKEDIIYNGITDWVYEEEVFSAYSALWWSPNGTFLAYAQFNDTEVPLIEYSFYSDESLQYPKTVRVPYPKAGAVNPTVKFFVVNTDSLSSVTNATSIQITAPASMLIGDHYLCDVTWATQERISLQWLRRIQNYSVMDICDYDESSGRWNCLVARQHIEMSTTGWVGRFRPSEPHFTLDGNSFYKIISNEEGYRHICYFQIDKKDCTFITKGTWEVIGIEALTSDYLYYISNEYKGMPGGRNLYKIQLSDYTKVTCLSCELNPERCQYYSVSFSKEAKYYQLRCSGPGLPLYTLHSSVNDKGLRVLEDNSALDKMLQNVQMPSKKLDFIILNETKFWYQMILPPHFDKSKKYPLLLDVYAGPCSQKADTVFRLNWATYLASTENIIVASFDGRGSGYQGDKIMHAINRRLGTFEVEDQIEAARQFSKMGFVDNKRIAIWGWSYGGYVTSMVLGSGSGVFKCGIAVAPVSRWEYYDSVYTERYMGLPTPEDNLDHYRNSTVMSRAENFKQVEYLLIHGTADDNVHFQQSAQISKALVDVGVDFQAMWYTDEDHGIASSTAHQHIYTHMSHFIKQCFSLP

For the compound `C[C@H]1O[C@H](O[C@H]2[C@H](O)[C@@H](O)[C@@H](O[C@H]3[C@H](O)[C@@H](O)C(O)O[C@@H]3CO)O[C@@H]2CO)[C@H](O)[C@@H](O)[C@@H]1N[C@H]1C=C(CO)[C@@H](O)[C@H](O)[C@H]1O` (some centres not stated) [ACARBOSE], the pIC50 in assay [1] was 5.03; in assay [2], 5.14.

Turning to `CN(C)/C(N)=N/c1nc(-c2ccccc2)cc(-c2c[nH]c3ccccc23)n1`, the IC50 was found to be 49.5 µg/mL (≈ 139 µM) in assay [3] and 55.98 µg/mL (≈ 157 µM) in assay [4].

As to `O=C(SC1=NC(c2ccc(Cl)cc2)=CC(c2ccc([N+](=O)[O-])cc2)N1)c1ccccc1CN1C(=O)c2ccccc2C1=O` (configuration not stated), on Dipeptidyl peptidase 4 [5], the pIC50 is 9.29.

Regarding `Nc1nc(NC2=NC(c3ccccc3)=CC(c3cccc([N+](=O)[O-])c3)N2)nc(N2CCOCC2)n1` (configuration not stated), the negative logarithm of the IC50 (pIC50) at Dipeptidyl peptidase 4 [6] was 8.54.

Consider `CCOC(=O)C1=C(C)NC(=O)NC1c1ccc(Nc2cccc3c2C(=O)c2ccccc2C3=O)cc1` (configuration not stated), for which the concentration for half-maximal inhibition (IC50) in assay [7] was determined as 24.23 µg/mL (≈ 50.3 µM).

Broadly, the pIC50 is the IC50 on a negative log10 scale, so that one unit is a factor of ten. By IC50 is commonly meant the concentration needed to halve the response being measured. Read a high IC50 as a need for much substance.
